Test results taken from ChEMBL document CHEMBL4680293, “Tubulin inhibitory activity of a novel colchicine-binding compounds based on a dinaphthospiropyranran scaffold” (Bioorg Med Chem, 2021).
Active and inactive are the calls of the source. The calls are words filed in the database; no cut-off is given here.

Legend:
Tubulin (Homo sapiens) = Tubulin (Homo sapiens) (UniProt P68371+Q9H4B7+P0DPH7+P68366+Q13509+Q71U36+P04350+Q3ZCM7+P07437+P68363+Q9BQE3+Q6PEY2+Q13885+Q9BVA1+Q9BUF5); experiment: Inhibition of tubulin (unknown origin) assessed as inhibition of tubulin polymerization at 10 uM measured for 50 mins by fluorescence based analysis; assay type: protein-complex assay
HCT-15 = experiment: Anti-cancer activity against human HCT-15 cells assessed as cell growth inhibition measured after 48 hrs by SRB method; assay type: functional, cell-based
[1] = Anti-cancer activity against human breast cancer cells assessed as cell growth inhibition measured after 48 hrs by SRB method; assay type: functional; conditions: Breast cancer cell line
Leukemia cell = experiment: Anti-cancer activity against human leukemia cells assessed as cell growth inhibition measured after 48 hrs by SRB method; assay type: functional
U-251 = experiment: Anti-cancer activity against human U251 cells assessed as cell growth inhibition measured after 48 hrs by SRB method; assay type: functional, cell-based
KM12 = experiment: Anti-cancer activity against human KM12 cells assessed as cell growth inhibition measured after 48 hrs by SRB method; assay type: functional, cell-based
786-0 = experiment: Anti-cancer activity against human 786-0 cells assessed as cell growth inhibition measured after 48 hrs by SRB method; assay type: functional, cell-based
CAKI-1 = experiment: Anti-cancer activity against human CAKI-1 cells assessed as cell growth inhibition measured after 48 hrs by SRB method; assay type: functional, cell-based
OVCAR-4 = experiment: Anti-cancer activity against human OVCAR-4 cells assessed as cell growth inhibition measured after 48 hrs by SRB method; assay type: functional, cell-based
T47D = experiment: Anti-cancer activity against human T47D cells assessed as cell growth inhibition measured after 48 hrs by SRB method; assay type: functional, cell-based
[2] = Anti-cancer activity against human prostate cancer cells assessed as cell growth inhibition measured after 48 hrs by SRB method; assay type: functional; conditions: Prostate tumor cell line
Hs-578T = experiment: Anti-cancer activity against human HS-578T cells assessed as cell growth inhibition measured after 48 hrs by SRB method; assay type: functional, cell-based
MOLT-4 = experiment: Anti-cancer activity against human MOLT-4 cells assessed as cell growth inhibition measured after 48 hrs by SRB method; assay type: functional, cell-based
HOP-92 = experiment: Anti-cancer activity against human HOP-92 cells assessed as cell growth inhibition measured after 48 hrs by SRB method; assay type: functional, cell-based
[3] = time 48 hrs, read-out: LC50 (the source's name)

Question: With C1=C2CNCC3=Cc4c(ccc5ccccc45)OC23Oc2ccc3ccccc3c21 as the compound, how does the inhibition (Tubulin (Homo sapiens)) read?
Answer: Active

Question: What about the IC50 (HCT-15; HCT-15, 48 h) of the same compound?
Answer: 5.5 µM

Question: What about the GI50 (HCT-15; HCT-15, time 48 hrs) of the same compound?
Answer: 3.89 µM

Question: And the LC50 (HCT-15; HCT-15, time 48 hrs)?
Answer: 4 µM

Question: What about the TGI (HCT-15; HCT-15, time 48 hrs) of the same compound?
Answer: 22.4 µM

Question: What about the GI50 [1] of the same compound?
Answer: 4.68 µM

Question: And the GI50 (Leukemia cell)?
Answer: 3.16 µM

Question: What about the IC50 (U-251; U-251, 48 h) of the same compound?
Answer: 5.13 µM

Question: What about the GI50 (U-251; U-251, time 48 hrs) of the same compound?
Answer: 3.24 µM

Question: And the LC50 (concentration killing 50% of cells) (U-251; U-251, time 48 hrs)?
Answer: 4.21 µM

Question: And the TGI (U-251; U-251, time 48 hrs)?
Answer: 14.8 µM

Question: What about the IC50 (KM12; KM12, 48 h) of the same compound?
Answer: 5.75 µM

Question: And the GI50 (KM12; KM12, time 48 hrs)?
Answer: 3.8 µM

Question: And the LC50 (KM12; KM12, time 48 hrs)?
Answer: 4.25 µM

Question: And the TGI (KM12; KM12, time 48 hrs)?
Answer: 16.2 µM

Question: And the IC50 (786-0; 786-0, 48 h)?
Answer: 9.55 µM

Question: What about the GI50 (786-0; 786-0, time 48 hrs) of the same compound?
Answer: 5.13 µM

Question: And the TGI (786-0; 786-0, time 48 hrs)?
Answer: 31.6 µM

Question: What about the IC50 (CAKI-1; CAKI-1, 48 h) of the same compound?
Answer: 12 µM

Question: And the GI50 (CAKI-1; CAKI-1, time 48 hrs)?
Answer: 3.31 µM

Question: What about the TGI (CAKI-1; CAKI-1, time 48 hrs) of the same compound?
Answer: 20.9 µM

Question: And the CC50 (CAKI-1; CAKI-1, time 48 hrs, read-out: LC50 (the source's name))?
Answer: 4.07 µM

Question: What about the IC50 (OVCAR-4; OVCAR-4, 48 h) of the same compound?
Answer: 11.7 µM

Question: And the GI50 (OVCAR-4; OVCAR-4, time 48 hrs)?
Answer: 4.68 µM

Question: And the LC50 (OVCAR-4; OVCAR-4, time 48 hrs)?
Answer: 4.21 µM

Question: What about the TGI (OVCAR-4; OVCAR-4, time 48 hrs) of the same compound?
Answer: 20 µM

Question: And the IC50 (T47D; 48 h)?
Answer: 24.5 µM

Question: And the GI50 (T47D; time 48 hrs)?
Answer: 8.32 µM

Question: What about the TGI (T47D; time 48 hrs) of the same compound?
Answer: 23.4 µM

Question: And the CC50 (T47D; [3])?
Answer: 4.22 µM

Question: What about the GI50 [2] of the same compound?
Answer: 3.39 µM

Question: And the IC50 (Hs-578T; 48 h)?
Answer: 100 µM

Question: What about the GI50 (Hs-578T; time 48 hrs) of the same compound?
Answer: 2.24 µM

Question: And the TGI (Hs-578T; time 48 hrs)?
Answer: 10.5 µM

Question: What about the CC50 (Hs-578T; [3]) of the same compound?
Answer: 4 µM

Question: And the IC50 (MOLT-4; MOLT-4, 48 h)?
Answer: 5.13 µM

Question: And the GI50 (MOLT-4; MOLT-4, time 48 hrs)?
Answer: 2.88 µM

Question: And the LC50 (MOLT-4; MOLT-4, time 48 hrs)?
Answer: 4 µM

Question: And the TGI (MOLT-4; MOLT-4, time 48 hrs)?
Answer: 10.5 µM

Question: And the IC50 (HOP-92; HOP-92, 48 h)?
Answer: 26.9 µM

Question: What about the GI50 (HOP-92; HOP-92, time 48 hrs) of the same compound?
Answer: 2.88 µM

Question: And the TGI (HOP-92; HOP-92, time 48 hrs)?
Answer: 17 µM
